Reference: US20260167619A2, “INDOLINE COMPOUNDS AND DERIVATIVES AS EGFR INHIBITORS” (BeOne Medicines I GmbH, priority 2020, published 2026)

Assays:
[1] = molecular target: EGFR(Dell9_T790M_C797S) (aa 669-1210, in house) (Homo sapiens, UniProt P00533, T790M/C797S, form not given); test: Biochemical EGFR inhibition assay (TR-FRET), Del19/T790M/C797S mutant; conditions: ATP at Km, 15 min pre-incubation, 60 min reaction; read-out: Del_TM_CS (Km ATP) IC50
Description: (§1) Compounds were tested for inhibition of kinase activity against EGFR (aa668-1210, Invitrogen), EGFR(L858R_T790M_C797S) (aa695-end, Invitrogen) and EGFR(Dell9_T790M_C797S) (aa 669-1210, in house) in assays based on time-resolved fluorescence-resonance energy transfer (TR-FRET) methodology. Recombinant EGFR, EGFR(L858R_T790M_C797S) or EGFR(Dell9_T790M_C797S) was pre-incubated with the compounds at room temperature for 15 minutes in an assay buffer containing 50 mM HEPES pH7.5, 10 mM MgCl2, 2 mM DTT, 1 mM EGTA, 0.1% BSA, 0.01% Tween-20. The reactions were initiated by the addition of ATP (at the concentration of ATP Km) and substrate Biotin-Poly GT. After reaction at room temperature for 60 minutes, stop/detection solution was added. The stop/detection solution contained Eu^3+ cryptate-conjugated mouse monoclonal antibody (PT66) anti-phosphotyrosine and XL665-conjugated streptavidin in buffer containing 50 mM HEPES pH7.0, 800 mM KF, 20 mM EDTA, and 0.1% BSA. Plates were sealed and incubated at room temperature for 1 hour, and the TR-FRET signals (ratio of fluorescence emission at 665 nm over emission at 620 nm with excitation at 337 nm wavelength) were recorded on a PHERAstar FS plate reader (BMG Labtech). The residual enzyme activity in presence of increasing concentrations of compounds was calculated based on the ratio of fluorescence at 665 nm to that at 620 nm. The IC50 for each compound was derived from fitting the data to the four-parameter logistic equation by Dotmatics or Graphpad Prism software.
(§2) These biochemical EGFR enzyme form compound dose-response assays quantify the kinase activity via phosphorylation of a tagged poly-GT substrate. The results of the assay are provided as IC50 values.

[2] = molecular target: T1, EGFR(L858R_T790M_C797S) (aa695-end, Invitrogen) (Homo sapiens, UniProt P00533, C797S/L858R/T790M); test: Biochemical EGFR inhibition assay (TR-FRET), L858R/T790M/C797S mutant; conditions: ATP at Km, 15 min pre-incubation, 60 min reaction; read-out: LR_TM_CS (Km ATP) IC50
T1 construct: purchased Invitrogen
Description: as §1, §2

[3] = molecular target: T2, EGFR (aa668-1210, Invitrogen) (Homo sapiens, UniProt P00533); test: Biochemical EGFR inhibition assay (TR-FRET), wild-type EGFR; conditions: ATP at Km, 15 min pre-incubation, 60 min reaction; read-out: WT (Km ATP) IC50
T2 construct: EGFR (aa668-1210, Invitrogen); purchased Invitrogen
Description: as §1, §2

T2 sequence (P00533 668-1210): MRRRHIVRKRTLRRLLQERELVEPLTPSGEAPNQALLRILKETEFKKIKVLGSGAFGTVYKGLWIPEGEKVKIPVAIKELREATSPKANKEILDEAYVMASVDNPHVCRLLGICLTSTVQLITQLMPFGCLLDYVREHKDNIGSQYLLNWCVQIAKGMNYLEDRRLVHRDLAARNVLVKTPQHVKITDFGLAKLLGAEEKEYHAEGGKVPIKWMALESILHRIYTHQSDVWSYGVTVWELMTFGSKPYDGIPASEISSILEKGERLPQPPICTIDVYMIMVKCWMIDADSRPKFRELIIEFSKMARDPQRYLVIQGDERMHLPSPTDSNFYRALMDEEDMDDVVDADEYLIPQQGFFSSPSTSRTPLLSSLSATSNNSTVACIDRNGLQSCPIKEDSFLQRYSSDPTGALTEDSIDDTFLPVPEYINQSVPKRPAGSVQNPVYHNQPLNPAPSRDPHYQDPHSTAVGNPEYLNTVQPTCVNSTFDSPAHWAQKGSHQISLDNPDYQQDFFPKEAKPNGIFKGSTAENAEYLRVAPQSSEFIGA
T1 sequence (P00533 695-1210 T790M/C797S/L858R): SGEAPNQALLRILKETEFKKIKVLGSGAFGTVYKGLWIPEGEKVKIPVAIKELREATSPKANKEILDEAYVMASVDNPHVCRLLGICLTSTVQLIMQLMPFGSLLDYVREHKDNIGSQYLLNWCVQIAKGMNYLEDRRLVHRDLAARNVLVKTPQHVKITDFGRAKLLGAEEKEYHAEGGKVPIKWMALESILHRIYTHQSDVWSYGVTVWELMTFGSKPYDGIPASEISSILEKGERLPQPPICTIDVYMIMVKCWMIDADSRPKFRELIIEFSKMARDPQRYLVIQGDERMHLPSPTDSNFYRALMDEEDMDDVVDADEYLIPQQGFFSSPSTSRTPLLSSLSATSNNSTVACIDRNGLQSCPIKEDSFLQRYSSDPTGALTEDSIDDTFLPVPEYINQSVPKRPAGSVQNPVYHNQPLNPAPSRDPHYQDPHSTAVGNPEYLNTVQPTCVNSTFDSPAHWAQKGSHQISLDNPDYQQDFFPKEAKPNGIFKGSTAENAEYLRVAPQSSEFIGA
Chain of EGFR(Dell9_T790M_C797S) (aa 669-1210, in house) (P00533 with tags, fused parts or gaps DEL746-750/T790M/C797S, form open): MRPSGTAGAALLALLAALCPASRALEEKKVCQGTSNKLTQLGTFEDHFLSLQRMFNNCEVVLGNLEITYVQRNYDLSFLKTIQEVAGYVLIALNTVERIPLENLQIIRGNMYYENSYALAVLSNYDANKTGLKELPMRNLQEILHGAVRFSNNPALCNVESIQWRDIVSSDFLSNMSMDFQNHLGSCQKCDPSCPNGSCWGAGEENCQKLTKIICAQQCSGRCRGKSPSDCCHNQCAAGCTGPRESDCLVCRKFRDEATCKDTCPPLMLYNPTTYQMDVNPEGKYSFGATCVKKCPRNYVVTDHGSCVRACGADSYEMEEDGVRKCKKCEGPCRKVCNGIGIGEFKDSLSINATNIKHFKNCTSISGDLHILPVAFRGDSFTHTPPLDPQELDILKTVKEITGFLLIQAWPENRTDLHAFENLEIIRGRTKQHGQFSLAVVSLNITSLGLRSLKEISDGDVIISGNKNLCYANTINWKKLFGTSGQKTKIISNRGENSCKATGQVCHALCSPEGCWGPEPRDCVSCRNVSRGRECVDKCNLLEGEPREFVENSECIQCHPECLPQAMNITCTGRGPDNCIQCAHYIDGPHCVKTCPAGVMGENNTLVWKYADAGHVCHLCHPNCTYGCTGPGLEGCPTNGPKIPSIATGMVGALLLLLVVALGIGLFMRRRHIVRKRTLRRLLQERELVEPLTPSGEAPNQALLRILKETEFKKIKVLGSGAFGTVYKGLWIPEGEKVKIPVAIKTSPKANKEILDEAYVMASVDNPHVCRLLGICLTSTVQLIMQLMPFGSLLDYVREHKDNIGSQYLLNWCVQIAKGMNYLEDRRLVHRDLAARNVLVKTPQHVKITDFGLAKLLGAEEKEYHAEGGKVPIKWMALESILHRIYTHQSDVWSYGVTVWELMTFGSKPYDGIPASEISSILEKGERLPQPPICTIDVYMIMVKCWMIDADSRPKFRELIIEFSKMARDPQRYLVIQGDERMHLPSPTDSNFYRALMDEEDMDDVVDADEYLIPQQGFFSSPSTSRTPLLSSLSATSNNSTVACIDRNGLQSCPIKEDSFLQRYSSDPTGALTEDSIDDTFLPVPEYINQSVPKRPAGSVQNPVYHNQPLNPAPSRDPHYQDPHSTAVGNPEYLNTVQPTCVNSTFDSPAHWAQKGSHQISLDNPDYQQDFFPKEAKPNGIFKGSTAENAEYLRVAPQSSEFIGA

**Q.** For `COc1cc(-c2cnn(CCN(C)C)c2)ccc1Nc1nc(Nc2cccc3c2N(S(C)(=O)=O)CC3)c2cc[nH]c2n1` [Example 113, N^2-(4-(1-(2-(dimethylamino)ethyl)-1H-pyrazol-4-yl)-2-methoxyphenyl)-N^4-(1-(methylsulfonyl)indolin-7-yl)-7H-pyrrolo[2,3-d]pyrimidine-2,4-diamine], which IC50 [1] is on record?
**A.** The IC50 was 18.5 nM.

**Q.** And the IC50 [2]?
**A.** Its IC50 is 16 nM.

**Q.** And the IC50 [3]?
**A.** Its IC50 is 1470 nM.

**Q.** With `CCN1CCN(C2CCN(c3cc(F)c(Nc4ncc(Br)c(Nc5cccc6c5N(S(C)(=O)=O)CC6)n4)cc3F)CC2)CC1` [Example 185, 5-bromo-N2-(4-(4-(4-ethylpiperazin-1-yl)piperidin-1-yl)-2,5-difluorophenyl)-N4-(1-(methylsulfonyl)indolin-7-yl)pyrimidine-2,4-diamine] as the compound, how does the IC50 [1] read?
**A.** The IC50 was 0.3 nM.

**Q.** And the IC50 [2]?
**A.** Its IC50 is 0.3 nM.

**Q.** And the IC50 [3]?
**A.** Its IC50 is 1.5 nM.

**Q.** What does the source list for `Cc1cc(Nc2nc(Nc3cccc4c3N(S(C)(=O)=O)CC4)c3cc[nH]c3n2)ccc1N1CCC(N2CCN(C)CC2)CC1` [Example 82, N^2-(3-methyl-4-(4-(4-methylpiperazin-1-yl)piperidin-1-yl)phenyl)-N^4-(1-(methylsulfonyl)indolin-7-yl)-7H-pyrrolo[2,3-d]pyrimidine-2,4-diamine]?
**A.** IC50 [1]: 0.85 nM; IC50 [2]: 0.7 nM; IC50 [3]: 39.7 nM

**Q.** What does the source list for `CN1CCN(C2CCN(c3ccc(Nc4ncc(Br)c(Nc5cccc6c5N(S(C)(=O)=O)CC6)n4)c4c3CC(C)(C)O4)CC2)CC1` [Example 57, 5-bromo-N^2-(2,2-dimethyl-4-(4-(4-methylpiperazin-1-yl)piperidin-1-yl)-2,3-dihydrobenzofuran-7-yl)-N^4-(1-(methylsulfonyl)indolin-7-yl)pyrimidine-2,4-diamine]?
**A.** IC50 [1]: 8.79 nM; IC50 [2]: 17.1 nM; IC50 [3]: 101 nM

**Q.** Which results are given for `COc1cc(Nc2nc(Nc3cccc4c3N(S(C)(=O)=O)CC4)c3cc[nH]c3n2)c(F)cc1N1CCC(N2CCN(C)CC2)CC1` [Example 149, N2-(2-fluoro-5-methoxy-4-(4-(4-methylpiperazin-1-yl)piperidin-1-yl)phenyl)-N4-(1-(methylsulfonyl)indolin-7-yl)-7H-pyrrolo[2,3-d]pyrimidine-2,4-diamine]?
**A.** IC50 [1]: 0.4 nM; IC50 [2]: 0.4 nM; IC50 [3]: 22.1 nM

**Q.** `CN1CCN(C2CCN(c3ccc(Nc4nc(Nc5cccc6c5N(S(C)(=O)=O)CC6)c5cc[nH]c5n4)cc3F)CC2)CC1` [Example 79, N^2-(3-fluoro-4-(4-(4-methylpiperazin-1-yl)piperidin-1-yl)phenyl)-N^4-(1-(methylsulfonyl)indolin-7-yl)-7H-pyrrolo[2,3-d]pyrimidine-2,4-diamine] was tested. Which IC50 [1] did it give?
**A.** Its IC50 is 0.29 nM.

**Q.** And the IC50 [2]?
**A.** Its IC50 is 0.26 nM.

**Q.** And the IC50 [3]?
**A.** The IC50 was 14 nM.

**Q.** Which results are given for `COc1cc(N2CCC(N3CCN(C)CC3)CC2)ccc1Nc1ncc(Cl)c(Nc2cccc3c2N(S(C)(=O)=O)CC32CC2)n1` [Example 187, 5-chloro-N2-(2-methoxy-4-(4-(4-methylpiperazin-1-yl)piperidin-1-yl)phenyl)-N4-(1′-(methylsulfonyl)spiro[cyclopropane-1,3′-indolin]-7′-yl)pyrimidine-2,4-diamine]?
**A.** IC50 [1]: 0.3 nM; IC50 [2]: 0.3 nM; IC50 [3]: 0.8 nM

**Q.** `COc1cc(N2CCC(N(C)C)CC2)c(C)cc1Nc1ncc(Br)c(Nc2cccc3c2N(S(C)(=O)=O)CC3)n1` [Example 46, 5-bromo-N^2-(4-(4-(dimethylamino)piperidin-1-yl)-2-methoxy-5-methylphenyl)-N^4-(1-(methylsulfonyl)indolin-7-yl)pyrimidine-2,4-diamine] was tested. Which IC50 [1] did it give?
**A.** The IC50 was 0.2 nM.

**Q.** And the IC50 [2]?
**A.** The IC50 was 0.1 nM.

**Q.** And the IC50 [3]?
**A.** The IC50 was 0.9 nM.

**Q.** With `COc1cc(N2CCC(N3CCN(C)C4(CC4)C3)CC2)ccc1Nc1nc(Nc2cccc3c2N(S(C)(=O)=O)CC3)c2cc[nH]c2n1` [Example 189, N2-(2-methoxy-4-(4-(4-methyl-4,7-diazaspiro[2.5]octan-7-yl)piperidin-1-yl)phenyl)-N4-(1-(methylsulfonyl)indolin-7-yl)-7H-pyrrolo[2,3-d]pyrimidine-2,4-diamine] as the compound, how does the IC50 [1] read?
**A.** Its IC50 is 1.2 nM.

**Q.** What about the IC50 [2] of the same compound?
**A.** The IC50 was 0.9 nM.

**Q.** What about the IC50 [3] of the same compound?
**A.** Its IC50 is 35.3 nM.

**Q.** Which IC50 [1] does the source give for `CN1CCN(C2CCN(c3c(F)cc(Nc4ncc(Br)c(Nc5cccc6c5N(S(C)(=O)=O)CC6)n4)c4c3CCO4)CC2)CC1` [Example 60, 5-bromo-N^2-(5-fluoro-4-(4-(4-methylpiperazin-1-yl)piperidin-1-yl)-2,3-dihydrobenzofuran-7-yl)-N^4-(1-(methylsulfonyl)indolin-7-yl)pyrimidine-2,4-diamine] here?
**A.** The IC50 was 0.35 nM.

**Q.** What about the IC50 [2] of the same compound?
**A.** Its IC50 is 0.3 nM.

**Q.** And the IC50 [3]?
**A.** The IC50 was 0.5 nM.

**Q.** Which results are given for `CN1CCN(C2CCN(c3ccc(Nc4nc(Nc5cccc6c5N(S(C)(=O)=O)CC6)c5cc[nH]c5n4)nc3)CC2)CC1` [Example 154, N2-(5-(4-(4-methylpiperazin-1-yl)piperidin-1-yl)pyridin-2-yl)-N4-(1-(methylsulfonyl)indolin-7-yl)-7H-pyrrolo[2,3-d]pyrimidine-2,4-diamine]?
**A.** IC50 [1]: 2.2 nM; IC50 [2]: 2.7 nM; IC50 [3]: 303 nM

**Q.** Which results are given for `CN(C)C1CCN(c2c(F)cc(Nc3ncc(Br)c(Nc4cccc5c4N(S(C)(=O)=O)CC5)n3)c3c2CCO3)CC1` [Example 59, 5-bromo-N^2-(4-(4-(dimethylamino)piperidin-1-yl)-5-fluoro-2,3-dihydrobenzofuran-7-yl)-N^4-(1-(methylsulfonyl)indolin-7-yl)pyrimidine-2,4-diamine]?
**A.** IC50 [1]: 0.24 nM; IC50 [2]: 0.2 nM; IC50 [3]: 1.1 nM

**Q.** Which IC50 [1] does the source give for `COc1cc(N2CCC(N3CCN(C)C4(CC4)C3)CC2)ccc1Nc1ncc(Br)c(Nc2cccc3c2N(S(C)(=O)=O)CC3)n1` [Example 192, 5-bromo-N2-(2-methoxy-4-(4-(4-methyl-4,7-diazaspiro[2.5]octan-7-yl)piperidin-1-yl)phenyl)-N4-(1-(methylsulfonyl)indolin-7-yl)pyrimidine-2,4-diamine] here?
**A.** Its IC50 is 0.2 nM.

**Q.** What about the IC50 [2] of the same compound?
**A.** Its IC50 is 0.1 nM.

**Q.** What about the IC50 [3] of the same compound?
**A.** The IC50 was 0.7 nM.

**Q.** For `COc1cc(N2CCC(N3CCN(C)CC3)CC2)ccc1Nc1ncc(Br)c(Nc2cccc3c2N(S(C)(=O)=O)CC32CC2)n1` [Example 28, 5-bromo-N^2-(2-methoxy-4-(4-(4-methylpiperazin-1-yl)piperidin-1-yl)phenyl)-N^4-(1′-(methylsulfonyl)spiro[cyclopropane-1,3′-indolin]-7′-yl)pyrimidine-2,4-diamine], which IC50 [1] is on record?
**A.** The IC50 was 0.39 nM.

**Q.** And the IC50 [2]?
**A.** The IC50 was 0.44 nM.

**Q.** And the IC50 [3]?
**A.** The IC50 was 0.9 nM.

**Q.** `CN(C)C1CCN(c2ccc(Nc3ncc(Br)c(Nc4cccc5c4N(S(C)(=O)=O)CC5)n3)c3c2CC(C)(C)O3)CC1` [Example 55, 5-bromo-N^2-(4-(4-(dimethylamino)piperidin-1-yl)-2,2-dimethyl-2,3-dihydrobenzofuran-7-yl)-N^4-(1-(methylsulfonyl)indolin-7-yl)pyrimidine-2,4-diamine] was tested. Which IC50 [1] did it give?
**A.** The IC50 was 5.82 nM.

**Q.** And the IC50 [2]?
**A.** Its IC50 is 7 nM.

**Q.** What about the IC50 [3] of the same compound?
**A.** The IC50 was 64.5 nM.

**Q.** `CC1Cc2c(N3CCC(N(C)C)CC3)ccc(Nc3ncc(Br)c(Nc4cccc5c4N(S(C)(=O)=O)CC5)n3)c2O1` (stereo not drawn) [Example 65, 5-bromo-N^2-(4-(4-(dimethylamino)piperidin-1-yl)-2-methyl-2,3-dihydrobenzofuran-7-yl)-N^4-(1-(methylsulfonyl)indolin-7-yl)pyrimidine-2,4-diamine] was tested. Which IC50 [1] did it give?
**A.** Its IC50 is 0.63 nM.

**Q.** What about the IC50 [2] of the same compound?
**A.** Its IC50 is 0.48 nM.

**Q.** What about the IC50 [3] of the same compound?
**A.** The IC50 was 5.5 nM.

**Q.** Which results are given for `COc1cc(-c2cnn(CCN3CCN(C)CC3)c2)ccc1Nc1nc(Nc2cccc3c2N(S(C)(=O)=O)CC3)c2cc[nH]c2n1` [Example 115, N^2-(2-methoxy-4-(1-(2-(4-methylpiperazin-1-yl)ethyl)-1H-pyrazol-4-yl)phenyl)-N^4-(1-(methylsulfonyl)indolin-7-yl)-7H-pyrrolo[2,3-d]pyrimidine-2,4-diamine]?
**A.** IC50 [1]: 42.8 nM; IC50 [2]: 20.7 nM; IC50 [3]: 2490 nM
